Test results published in patent US9238807B2, “Peptide increasing fusiogenic capacity of a gamete” (UNIVERSITE PARIS 13, priority 2003, dated 2016).
Positions of bridges follow the written chain, without caps; N, C: chain ends. Residues, ends and D or L forms follow the SMILES beside them. No end group written: not given here.

Columns and labels:
[1] = system: human zona-free oocytes and spermatozoa; format: cell-based
Experimental: (§1) Patients donated said oocytes for research purposes and signed a consent form approved by the Institutional Review Board of the Aulnay-sous-Bois hospital.
These oocytes aged 48 hours or matured in vitro were not or were no longer capable of producing an embryo. Moreover, the polyspermy blocking mechanism which ensures that the embryo will be diploid is located in the zona pellucida of the oocyte. By removing the zona pellucida of these oocytes, this protective mechanism is abolished, leading to nonviable polyspermic zygotes in the event of gamete fusion. Finally, as embryo development occurs inside the zona pellucida for the first six days, the absence of the latter precludes said development from taking place.
(§2) To maintain the oocyte membrane as close as possible to its natural state, the inventors removed the zona pellucida mechanically with microsurgical scissors.
Sperm from fertile donors was collected after three days of abstinence and prepared as for IVF. […]
Functional tests of inhibition of fusion were carried out in conditions similar to those used for IVF, that is, in conditions sufficiently close to physiological conditions since they enable pregnancy and fetuses. […] The slides were analyzed under a Zeiss Axiophot microscope equipped with a camera connected to Imaging System Package image analysis software (Applied Imaging, Newcastle-upon-Tyne, UK). […]

[2] = system: human oocyte membrane; test: Detection of biotinylated FEEc peptide at the surface of human oocytes (immunofluorescence, confocal microscopy); format: binding; conditions: 200 μM biotinylated peptide, 45 minutes, FIG. 1
Experimental: as §1, §2
The oocytes were incubated with 200 μM biotinylated FEEc peptide for 45 minutes.
The zona pellucida was mechanically removed from the oocytes which were then incubated for 45 minutes with […] biotinylated peptide. The FEEc peptide was detected with a mouse anti-biotin antibody recognized by a biotinylated anti-mouse immunoglobulin antibody then by streptavidin-FITC. The oocytes were then mounted in immunomount between the coverslip and the slide and examined under a confocal microscope, B: superimposition of sections corresponding to a hemi-oocyte.

Molecule	toxic effect on oocytes [1]	labelling of the oocyte membrane with the peptide [2]
N[C@H]1CSSC[C@@H](C(=O)O)NC(=O)[C@H](CCC(=O)O)NC(=O)[C@H](CCC(=O)O)NC(=O)[C@H](Cc2ccccc2)NC(=O)[C@H](CO)NC1=O [FEEc, CSFEEC] (H-CSFEEC-OH; disulfide 1-6)	no toxic effect on oocytes	
biotinylated FEEc: FEEc cyclic peptide labelled with biotin for detection on oocytes (CSFEEC; disulfide 1-6 (inferred); also: biotinylated (position not given here))		labelling of the membrane
